Data as given in patent US10303923B1, “Quantitation of NETosis using image analysis” (The University of North Carolina at Chapel Hill, priority 2018, dated 2019).
“Also recorded” adds a separate entry of the source. Read-outs that look alike come from different tables or passages of the source.

What was measured:
[1] = tested on: neutrophils from SCD patients; assay: NETosis quantitation by CNN image analysis in neutrophils from SCD patients at steady-state; assay type: cell-based, human; conditions: SCD patients at steady-state (n=7), 2 hours treatment, two-way ANOVA
From the text: We next applied this assay to an inflammatory disease that has been suspected of being influenced by NETosis; patients with sickle cell disease (SCD) suffer chronic inflammation due to recurrent ischemia/reperfusion injuries and are hypercoagulable. The hypercoagulability is thought to be due to at least in part to circulating NETs similar to other inflammatory diseases. Soluble components presumably from NETs (DNA and nucleosomes) are detectible in plasma from both SCD patients and humanized SCD mice^11, 12. Furthermore, neutrophils from healthy individuals exposed to plasma from SCD patients causes NET generation. Because SCD neutrophils function at a reduced capacity for oxidative burst and produce less ROS than non-SCD neutrophils, we asked whether the ROS-dependent NETosis pathway is affected^13-15. Only patients at steady-state were included in the study. […] Reduction of neutrophils' oxidative burst capacity also occurs in conditions such as chronic granulomatous disease (CGD), and results in reduced NETosis^16. The divergence of our results from those previously published are possibly due to our observation of NETosis in neutrophils directly without the use of a surrogate NETosis biomarker.
The same conditions for cell isolation and treatment were used for neutrophils from SCD patients at steady-state (n=7), and the results are shown in graphs 206 and 208. […]

[2] = tested on: Human neutrophils from healthy volunteers; assay: NETosis quantitation by CNN image analysis in adherent neutrophils from healthy volunteers; assay type: cell-based; conditions: read-out: EC50 (concentration inducing 50% of neutrophils to undergo NETosis)
From the text: This specification describes an assay for the assessment of 1) the EC50 of NETotic agonists in adherent human neutrophils and 2) the NETosis mechanism specific to these agonists. Neutrophils were isolated from peripheral blood of healthy volunteers and allowed to adhere to 96-well plates before stimulation with different concentrations of agonists. We established our assay with two widely used agonists, PMA, a PKC activator and A23187, a Ca+2 ionophore. NETosis data were acquired using the automated BD Pathway 855 Bio-imaging Systems. An image processing algorithm was created to distinguish two populations related to neutrophil nuclear size, intensity and texture. Our assay is the first to describe a semi-automated imaging and analysis method for the study of NETosis and is a positive step towards standardizing the quantitation of NETosis in isolated cells. This assay has potential applications in screening novel pharmaceuticals and in analyzing cells from patients with various diseases.
Adherent neutrophils were treated for 2 hours with either agonist or DMSO vehicle. DMSO treatment alone causes neutrophil NETosis reaching a maximum response of 30% with 0.16% DMSO. The resulting NETotic nuclei are visually indistinguishable from those observed with PMA- or A23187-treatments as shown graph 204. DMSO is the recommended solvent for both PMA and A23187. […]

`CNc1ccc2oc(C[C@H]3O[C@@]4(CC[C@H]3C)O[C@H]([C@H](C)C(=O)c3ccc[nH]3)[C@H](C)C[C@H]4C)nc2c1C(=O)O` [A23187, Calcimycin] was tested, and the “NETosis response of SCD neutrophils compared with non-SCD neutrophils” value [1] was “responded similarly; also recorded: little difference was observed between SCD and non-SCD” and the EC50 ([2]; Homo sapiens, Neutrophil, n=8, 2 hours treatment, PADIV-dependent pathway) was 900 nM.
With `CCCCCCCCCCCCCC(=O)O[C@@H]1[C@@H](C)[C@@]2(O)[C@@H](C=C(CO)C[C@]3(O)C(=O)C(C)=C[C@@H]23)[C@@H]2C(C)(C)[C@]12OC(C)=O` [PMA] the “NETosis response of SCD neutrophils compared with non-SCD neutrophils” value [1] was “comparatively insensitive; also recorded: responded poorly” and the EC50 ([2]; n=11, 2 hours treatment, ROS-dependent pathway) was 2.1 nM.
